Reference: patent publication US20240108611A1, “COMPOSITION FOR PREVENTING OR TREATING METABOLIC DISEASES, CONTAINING TORSEMIDE AND CROMOLYN” (ONCOCROSS CO., LTD., priority 2021, published 2024)

How the values were obtained:
NASH animal model = assay: Triglycerides in liver tissue by Oil Red O staining in NASH animal model; conditions: HFD mice after 13 weeks of diet and drug administration
[1] = system: nonalcoholic steatohepatitis (NASH) animal model; assay: Body weight change in nonalcoholic steatohepatitis (NASH) animal model, high fat diet; format: in vivo, ICR mice; conditions: high-fat diet mice; 10 mg/kg each drug i.p. three times a week for 6 weeks

With `O=C(O)c1cc(=O)c2c(OCC(O)COc3cccc4oc(C(=O)O)cc(=O)c34)cccc2o1` [cromolyn] the “triglycerides in liver tissue (Oil Red O staining) versus HFD PBS group” value (NASH animal model) was “relatively decreased” and the “change in body weight compared to high-fat diet control group (HFD PBS)” value [1] was “no significant change”.
